# Source: patent US11459339B2, “Biaryl derivative, preparation method thereof and pharmaceutical application thereof” (Abbisko Therapeutics Co., Ltd., priority 2018, dated 2022)
# Where two headings read alike, the source gives them in different places.
# How the values were obtained:
# [1] = biological target: interaction between PD-1 and PD-L1 (Homo sapiens (Human), UniProt Q9NZQ7); assay: PD1-PDL1 HTRF binding activity test (Cisbio PD-1/PD-L1 binding assay kit)
# [2] = biological target: interaction between PD-1 and PD-L1 expressed on cell surfaces (Homo sapiens (Human), UniProt Q9NZQ7); assay: Jurkat reporter gene cellular assay (Jurkat/NF-κB-luc/PD1 cells cocultured with Raji-PD-L1 cells, OKT-3 stimulation); type: cell-based
# In short: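 Jurkat cells stably expressing human PD-1 and NF-κB-luciferase were cocultured with Raji cells stably expressing human PD-L1 under OKT-3 stimulation, with compound present. Luminescence was read after 6 h.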
# [3] = Pharmacokinetic assay in mice, per oral administration; type: in vivo; conditions: ICR mice
# From the text: C. Pharmacokinetic Assay in Mice
# The purpose of this study was to study the pharmacokinetic behaviors of some compounds of the present invention, and administration routes were: per oral administration (PO) to ICR mice:
# The compounds used in this test came from the compounds of the specific examples of the present invention.
# ICR mice male N=3 original source: Shanghai Sippr-BK Laboratory Animal Co. Ltd.
# 2.3 Preparation and Administration of Medicaments
# The compounds were weighed, and dissolved in solvent of 0.5% SDS+0.5% CMCNa. The mixture solutions were mixed well by shaking and ultrasonic treatment to obtain colorless clear solutions. The solutions were orally administered to nine mice after an overnight fast. The dosage of administration was 10 mg/kg (or 30 mg/kg).
# With about 90 μL/time point, blood was drawn from the submaxillary vein, and heparin sodium was added for anticoagulation. The blood samples were placed onto the ice, and were centrifuged (centrifugation conditions: 8000 r/min, 6 min, 2-8° C.) within 1 hr to obtain plasmas. The time points for blood sampling were at 0 hr, 0.25 hr, 0.5 hr, 1 hr, 2 hrs, 4 hrs, 6 hrs, 8 hrs and 24 hrs after administration. The samples were stored in a refrigerator at −20° C.
# 40 μL of plasma sample was added to 160 μL of cold acetonitrile containing an internal standard, and the mixture solution was vortexed for 3 min and centrifuged at 11,000 r/min for 5 min. 100 μL of supernate was taken and added to 100 μL of water, and 5 μL of the sample was taken and analyzed by LC/MS/MS. Only the original compounds were analyzed for examples 1, 3, 5, 8, 46 and 141 (for results, see table 2); and both the original compounds and possible products of ester hydrolysis, namely example 2, 27, 65 and 105, were analyzed for examples 4, 26, 64 and 104 (for results, see table 3).
# [4] = male, mouse, plasma, PO 10 mg/kg, original compound analyzed
# [5] = male, mouse, plasma, PO 10 mg/kg, original compound analyzed, class symbol
# [6] = male, mouse, PO 10 mg/kg, plasma, original compound analyzed, class symbol, read-out: Cmax
# [7] = read-out: PD1-PDL1 HTRF Binding Activity IC50
# [8] = NF-κB-luc reporter activation fold, 6 hrs, read-out: Cell Activity EC50
# [9] = male, mouse, plasma, PO 30 mg/kg, original compound (ester) analyzed
# [10] = male, mouse, plasma, PO 30 mg/kg, original compound (ester) analyzed, class symbol
# [11] = male, mouse, plasma, PO 30 mg/kg, original compound (ester) analyzed, class symbol, read-out: Cmax
# [12] = product of ester hydrolysis analyzed after PO 30 mg/kg of the ester (2 after 4, 27 after 26, 65 after 64)
# interaction between PD-1 and PD-L1, sequence (Q9NZQ7 19-238): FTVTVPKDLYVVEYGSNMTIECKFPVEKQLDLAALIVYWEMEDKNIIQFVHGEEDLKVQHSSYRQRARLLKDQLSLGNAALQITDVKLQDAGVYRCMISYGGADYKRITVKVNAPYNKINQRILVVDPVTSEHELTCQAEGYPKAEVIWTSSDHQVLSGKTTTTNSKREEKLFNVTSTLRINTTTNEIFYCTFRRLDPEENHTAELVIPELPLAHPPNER
# interaction between PD-1 and PD-L1 expressed on cell surfaces, sequence (Q9NZQ7 19-290): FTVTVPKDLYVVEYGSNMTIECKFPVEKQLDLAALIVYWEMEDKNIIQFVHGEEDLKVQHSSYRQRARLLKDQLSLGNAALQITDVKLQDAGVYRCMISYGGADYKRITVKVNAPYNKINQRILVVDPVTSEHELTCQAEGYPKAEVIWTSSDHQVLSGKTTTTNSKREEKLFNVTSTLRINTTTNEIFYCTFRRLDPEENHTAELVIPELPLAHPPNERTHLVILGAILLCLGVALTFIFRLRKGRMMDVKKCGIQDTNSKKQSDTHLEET
SMILES,"MRT [3, 4] [h]","Tmax [3, 4] [h]","half-life [3, 4] [h]","AUC(0-t) [3, 5] [ng·h/mL]","Cmax [3, 6] [ng/mL]","IC50 [1, 7] [nM]","EC50 [2, 8] [nM]",ester hydrolysis in the bodies of the mice after oral administration [3],other results
"Cc1c(NC(=O)c2ccc(CNCCO)cn2)cccc1-c1cccc(NC(=O)c2ccc(CNCCO)cn2)c1C [Example 1, N,N′-(2,2′-dimethyl-[1,1′-biphenyl]-3,3′-diyl)bis(5-(((2-hydroxyethyl)amino)methyl)picolinamide)]",3.3,1,2.4,≤ 500,≤ 100,,,,IC50 [1]: 0.17 nM; EC50 [2]: 137 nM
"Cc1cc(C(=O)Nc2cccc(-c3cccc(NC(=O)c4cc(C)c(CNC(CO)CO)cn4)c3C)c2C)ncc1CNC(CO)CO [Example 8, N,N′-(2,2′-dimethyl-[1,1′-biphenyl]-3,3′-diy)bis(5-(((1,3-dihydroxypropan-2-yl)amino)methyl)-4-methylpicolinamide)]",5.4,2,3,500 to 2000,,0.41,186,,"Cmax ([3]; male, mouse, PO 10 mg/kg, plasma, original compound analyzed, read-out: Cmax): 319 ng/mL"
"COC(=O)[C@@H]1CCCCN1Cc1cnc(C(=O)Nc2cccc(-c3cccc(NC(=O)c4cc(C)c(CN5CCCC[C@H]5C(=O)OC)cn4)c3C)c2C)cc1C [Example 26, dimethyl 1,1′-(((((2,2′-dimethyl-[1,1′-biphenyl]-3,3′-diyl)bis (azanediyl))bis(carbonyl))bis (4-methylpyridine-6,3-diyl))bis(methylene))(2S,2′S)-bis (piperidine-2-carboxylate)]",,,,,,65.3,,no product of ester hydrolysis was detected,"MRT [3, 9]: 7 h; Tmax [3, 9]: 6 h; half-life [3, 9]: 3.6 h; AUC(0-t) [3, 10]: > 2000 ng·h/mL; Cmax [3, 11]: > 500 ng/mL"
"COc1cc(C(=O)Nc2cccc(-c3cccc(NC(=O)c4cc(OC)c(CN5CC(C)(O)C5)cn4)c3C)c2C)ncc1CN1CC(C)(O)C1 [Example 46, N,N'-(2,2′-dimethyl-[1,1′-biphenyl]-3,3′-diyl)bis(5-((3-hydroxy-3-methylazetidin-1-yl)methyl)-4-methoxypicolinamide)]",15.5,4,10.7,500 to 2000,≤ 100,0.25,64,,
"COc1cc(C(=O)Nc2cccc(-c3cccc(NC(=O)c4cc(OC)c(CN5CCCC[C@H]5C(=O)O)cn4)c3C)c2C)ncc1CN1CCCC[C@H]1C(=O)O [Example 65, (2S,2S)-1,1′-(((((2,2′-dimethyl-[1,1′-bipheny]-3,3′-diyl)bis(azanediyl))bis(carbonyl))bis(4-methoxypyridine-6,3-diyl))bis(methylene))bis(piperidine-2-carboxylic acid)]",,,,,,0.12,132,,"Cmax [3, 12]: BQL"
"COc1cc(C(=O)Nc2cccc(-c3cccc(NC(=O)c4cc(OC)c(CNCCO)cn4)c3Cl)c2C)ncc1CNCCO [Example 141, N,N′-(2-chloro-2′-methyl-[1,1′-biphenyl]-3,3′-diyl)bis(5-(((2-hydroxyethyl)amino)methyl)-4-methoxypicolinamide)]",,,,,,0.75,74,,"Cmax ([3]; PO 10 mg/kg, plasma, original compound analyzed): BQL"

# More lines, in order of falling IC50 [1, 7], values ahead:
"MRT [3, 4] [h]","Tmax [3, 4] [h]","half-life [3, 4] [h]","AUC(0-t) [3, 5] [ng·h/mL]","Cmax [3, 6] [ng/mL]","IC50 [1, 7] [nM]","EC50 [2, 8] [nM]",SMILES,ester hydrolysis in the bodies of the mice after oral administration [3],other results
,,,,,10.7,1860,COC(=O)[C@@H]1CCCCN1Cc1cnc(C(=O)Nc2cccc(-c3cccc(NC(=O)c4cc(OC)c(CN5CCCC[C@H]5C(=O)OC)cn4)c3C)c2C)cc1OC [Example 64],no product of ester hydrolysis was detected,"MRT [3, 9]: 4.6 h; Tmax [3, 9]: 2 h; half-life [3, 9]: 3.7 h; AUC(0-t) [3, 10]: > 2000 ng·h/mL; Cmax [3, 11]: > 500 ng/mL"
,,,,,1.57,296,COC(=O)[C@@H](CO)NCc1cnc(C(=O)Nc2cccc(-c3cccc(NC(=O)c4cc(C5CC5)c(CN[C@H](CO)C(=O)OC)cn4)c3C)c2C)cc1C1CC1 [Example 104],rapidly became corresponding acids,"Cmax ([3]; Table 3, PO 10 mpk, original compound (ester 104) analyzed): BQL"
10.2,2,8.3,,100 to 500,0.36,64,"Cc1cc(C(=O)Nc2cccc(-c3cccc(NC(=O)c4cc(C)c(CNCCO)cn4)c3C)c2C)ncc1CNCCO [Example 5, N,N′-(2,2′-dimethyl-[1,1′-biphenyl]-3,3′-diyl)bis(5-(((2-hydroxyethyl)amino)methyl)-4-methylpicolinamide)]",,"AUC(0-t) [3, 4]: 1680 ng·h/mL"
,,,,,0.28,128,"Cc1cc(C(=O)Nc2cccc(-c3cccc(NC(=O)c4cc(C)c(CN5CCCC[C@H]5C(=O)O)cn4)c3C)c2C)ncc1CN1CCCC[C@H]1C(=O)O [Example 27, (2S,2′S)-1,1′-(((((2,2′-dimethyl-[1,1′-biphenyl]-3,3′-diyl)bis(azanediyl))bis(carbonyl))bis(4-methylpyridine-6,3-diyl))bis (methylene))bis(piperidine-2-carboxylic acid)]",,"Cmax [3, 12]: BQL"
16.7,0.5,12.9,> 2000,100 to 500,0.2,37,"COc1cc(C(=O)Nc2cccc(-c3cccc(NC(=O)c4cc(OC)c(CNCCO)cn4)c3C)c2C)ncc1CNCCO [Example 3, N,N′-(2,2′-dimethyl-[1,1′-biphenyl]-3,3′-diyl)bis(5-(((2-hydroxyethyl)amino)methyl)-4-methoxypicolinamide)]",,
,,,,,0.064,1340,"COC(=O)[C@@H](CO)NCc1cnc(C(=O)Nc2cccc(-c3cccc(NC(=O)c4cc(OC)c(CN[C@H](CO)C(=O)OC)cn4)c3C)c2C)cc1OC [Example 4, dimethyl 2,2′-((((((2,2′-dimethyl-[1,1′-biphenyl]-3,3′-diyl)bis(azanediyl))bis(carbonyl))bis(4-methoxypyridine-6,3-diyl))bis(methylene))bis(azanediyl))(2R,2′R)-bis(3-hydroxypropanoate)]",rapidly became corresponding acids,"Cmax ([3]; PO 30 mg/kg, original compound (ester) analyzed): BQL"
